These results are taken from paper doi:10.1101/717207v1 (bioRxiv, 2019).

Data set [1] is described as follows: Peptide binding to heparin studied by ITC. The settings on record: heparin into peptide, PBS, one site model, average of two experiments.
The nature of data set [2]: Peptide binding to POPG LUVs studied by ITC. The settings on record: POPG LUVs into peptide, PBS, one site model, once or twice. In general terms: Isothermal titration calorimetry measures the heat released or taken up as one component is titrated into another.
Data set [3] in a line: Perturbation of DMPG membrane organization probed by DSC. The class given is physicochemical. The settings on record: DMPG MLVs 1 mg/mL in PBS, peptide-to-lipid ratio 1/50, 1°C/min, 0-50°C. For orientation: In DSC, transitions show as peaks or steps in heat flow.
A short description of data set [4]: Peptide secondary structure by ATR-FTIR in the absence or presence of heparin. The class given is physicochemical. Particulars: for Percentage of structural elements: β-strand: ATR-FTIR amide I deconvolution, 1627 cm^-1; for Percentage of structural elements: Random coil / Percentage of structural elements: α-Helix / Percentage of structural elements: Turn: ATR-FTIR; for Percentage of structural elements: Random coil: 1643 cm^-1; for Percentage of structural elements: α-Helix: 1659 cm^-1; for Percentage of structural elements: Turn: 1679 cm^-1.

The mark [5] stands for this setting: +Hep (8.3 µM heparin, peptide per ITC stoichiometry).

For RRRRWRRRR [Peptide R8W1-1], the results for the TΔS in data set [1] and in data set [2] were -71.5 kcal/mol and 6.2 kcal/mol, respectively. Besides, the ΔH in data set [1] is on record as -81.7 kcal/mol; in data set [2] it was -0.72 kcal/mol.

Turning to RRRRRRRRW [Peptide R8W1-2], in data set [1], the TΔS is listed as -82.0 kcal/mol and the ΔH was -92.3 kcal/mol. In data set [2], the TΔS is given as 6.7 kcal/mol and the ΔH is -0.79 kcal/mol.

Turning to RRRRRRRRR [Peptide R9], the TΔS in data set [1] is on record as -60.5 kcal/mol; in data set [2] it was 7.4 kcal/mol. In addition, the values for the ΔH in data set [1] and in data set [2] were -71.7 kcal/mol and -0.60 kcal/mol, respectively.

On to RRDWDWRRDWRR [Peptide R6DW3], for which the “effect on DMPG bilayer organization (phase transitions)” value in data set [3] was “almost identical to that of aR6W3”. In data set [1], this sequence yielded a TΔS of -80.5 kcal/mol and a ΔH of -91.1 kcal/mol. In data set [2], this sequence registered a TΔS of 6.2 kcal/mol and a ΔH of -0.74 kcal/mol.

For the sequence RRWWRRWWR [aR5W4], in data set [1], the TΔS is -165.9 kcal/mol and the ΔH was -176.6 kcal/mol. In data set [2], this sequence gave a TΔS of 5.0 kcal/mol and a ΔH of -2.53 kcal/mol. For the same sequence, in data set [4] (peptide alone, 100 µM in PBS), the “Percentage of structural elements: β-strand” value (shortened to “Percentage … β-strand”) turned out to be 11%, the “Percentage of structural elements: Random coil” value (“Percentage … Random coil” for short) amounted to 24%, the “Percentage of structural elements: α-Helix” value (“Percentage … α-Helix” below) was determined as 29% and the “Percentage of structural elements: Turn” value was found to be 36%. In addition, in data set [4] (setting [5]), the “Percentage … Random coil” value was 20%, the “Percentage … α-Helix” value was 30% and the “Percentage of structural elements: Turn” value is 30%.

In data set [1], RRWWRRWRR [aR6W3] showed a TΔS of -105.6 kcal/mol and a ΔH of -116.4 kcal/mol. In data set [2], this sequence returned a TΔS of 5.7 kcal/mol and a ΔH of -1.39 kcal/mol. For the same sequence, in data set [4] (peptide alone, 100 µM in PBS), the “Percentage … β-strand” value is 13%, the “Percentage … Random coil” value is given as 17%, the “Percentage … α-Helix” value was found to be 30% and the “Percentage of structural elements: Turn” value was 40%. In data set [4] (setting [5]), the “Percentage … Random coil” value is reported as 24%, the “Percentage … α-Helix” value turned out to be 28% and the “Percentage of structural elements: Turn” value came out at 40%.

Regarding RRRWRRWRR [aR7W2], in data set [1], the TΔS is on record as -86.3 kcal/mol and the ΔH is given as -96.8 kcal/mol. Besides, in data set [2], the TΔS came to 6.2 kcal/mol and the ΔH is on record as -0.84 kcal/mol. For the same sequence, in data set [4] (peptide alone, 100 µM in PBS), the “Percentage … β-strand” value was 22%, the “Percentage … Random coil” value worked out at 18%, the “Percentage … α-Helix” value is given as 25% and the “Percentage of structural elements: Turn” value is given as 35%. In data set [4] (setting [5]), the “Percentage … Random coil” value came out at 20%, the “Percentage … α-Helix” value is reported as 26% and the “Percentage of structural elements: Turn” value stood at 37%.

In data set [1], RRWRRRRWW [nR6W3] showed a TΔS of -113.0 kcal/mol and a ΔH of -123.3 kcal/mol. In data set [2], this sequence returned a TΔS of 6.5 kcal/mol and a ΔH of -1.27 kcal/mol. In addition, in data set [4] (peptide alone, 100 µM in PBS), the “Percentage … β-strand” value turned out to be 21%, the “Percentage … Random coil” value came to 23%, the “Percentage … α-Helix” value was found to be 25% and the “Percentage of structural elements: Turn” value turned out to be 31%. For the same sequence, in data set [4] (setting [5]), the “Percentage … Random coil” value came out at 24%, the “Percentage … α-Helix” value is on record as 27% and the “Percentage of structural elements: Turn” value is 22%.

In data set [1], RWRWRRRRR [nR7W2] registered a TΔS of -82.9 kcal/mol and a ΔH of -93.5 kcal/mol. In data set [2], this sequence returned a TΔS of 6.7 kcal/mol and a ΔH of -0.81 kcal/mol.

As for RWWWWRRRR [nR5W4], in data set [1], the TΔS was -169.0 kcal/mol and the ΔH is reported as -179.3 kcal/mol. In data set [2], the TΔS turned out to be 5.7 kcal/mol and the ΔH is -2.10 kcal/mol. In data set [4] (peptide alone, 100 µM in PBS), the “Percentage … β-strand” value is given as 17%, the “Percentage … Random coil” value turned out to be 22%, the “Percentage … α-Helix” value came out at 26% and the “Percentage of structural elements: Turn” value was found to be 35%. In addition, in data set [4] (setting [5]), the “Percentage … Random coil” value is 22%, the “Percentage … α-Helix” value is on record as 26% and the “Percentage of structural elements: Turn” value is 32%.
